Experimental data published in PMC12475274, “Harnessing indole scaffolds to identify small-molecule IRE1α inhibitors modulating XBP1 mRNA splicing” (Nature Communications, 2025).
“Also recorded” adds a separate entry of the source.

Assays:
[1] = molecular target: T1, dephosphorylated IRE1α (Homo sapiens, UniProt O75460); assay: Microscale thermophoresis (MST), IRE1α; format: binding
T1 construct: Human IRE1α kinase and RNase domain (residues 547–977) was subcloned into pLIB plasmid; His tag (with TEV cleavage site) (N, cleaved yes); made in house; host or cells: Sf9 insect cells, baculovirus (Bac-to-Bac)
Protocol: Dephosphorylated IRE1α protein and phosphorylated IRE1α protein were labeled and purified using Protein Labeling Kit RED-NHS 2nd Generation (NanoTemper, MO-L011), following the manufacturer’s protocol. The labeling buffer contained 50 mM HEPES, pH 7.5, 200 mM NaCl, 2% glycerol, 0.5 mM TCEP, 0.05% tween20. MST experiments were performed using the Monolith Nt.115 instrument (NanoTemper), and binding experiments were conducted according to the instrument’s instructions. Compounds were serially diluted 2-fold and incubated with labeled IRE1α protein at a final concentration of 20 nM. The highest compound concentration measured was 250 μM with a final DMSO concentration of 2.5%. Measurements were carried out using the red detector with 60% excitation power. Data were analyzed using the manufacturer’s software, and results from three individual measurements were merged for analysis.

[2] = molecular target: T2, wild-type full-length IRE1α in A549 cell lysate (Homo sapiens, UniProt O75460); assay: Thermal stability assay in A549 cell lysate; format: binding
T2 construct: endogenous in cells; host or cells: A549 cells
Protocol: A549 cells were harvested and seeded into 100 mm standard cell culture dishes at 80% confluency and cultured overnight. For the IA107 experiment, cells were gently washed with pre-cooled DPBS (Gibco,14190169) and lysed in RIPA buffer (Sigma, R0278) supplemented with phosphatase inhibitor (Roch, 4906845001) and 1× protease inhibitor cocktail (Sigma, P8340) for 30 min on ice. Cell lysates were centrifuged at 18,000 × g for 30 min at 4 °C and the supernatants were collected. The lysates were collected together and then aliquoted into 550 μL, the aliquots were incubated with different concentrations of IA107 with a final concentration of 0.1% DMSO for 30 min at room temperature. After the incubation, the sample was aliquoted into 10 PCR tubes, with 50 μL of lysate per tube and further heated at the indicated temperatures using a PCR cycler (25 °C for 1 min; indicated temperatures for 3 min; 16 °C, hold). After heating, the lysates were centrifuged at 18,000 × g for 30 min at 4 °C and the supernatants were collected and mixed with 4x protein loading buffer (Invitrogen, 2463559), heated at 95 °C for 10 min and separated by 4–20% MP stain-free gels (Bio-Rad, 4568095) then transferred to 0.45 μm PVDF membranes (Bio-Rad, 1704274) using the Trans-Blot Turbo Transfer System with the preprogrammed standard SD protocol (Bio-Rad). […]

[3] = test system: XBP1 mRNA splicing in HCT 116 cells; assay: RT-qPCR of ER stress-induced XBP1 mRNA splicing, HCT 116; format: cell-based, human; details: HCT 116 cells
Protocol: (§1) A549 cells, HCT 116 cells, and HT-29 cells were collected and seeded in 6-well plates at a density of 5 × 10^5 cells per well and cultured overnight to attach, then treated with compound or DMSO for 2 h, then 0.5 μg/mL final concentration of tunicamycin (Tm, MP Biomedi, 0215002805) were added to induce the ER stress for 2 h. After treatment, total RNA was purified using an RNeasy mini kit (Qiagen, 74106). 500 ng of total RNA was used for reverse transcription using the High-Capacity cDNA Reverse Transcription Kits (Thermo Fisher, 4368814). cDNA was diluted 1: 5 using RNase-free water, and 1 μL CDNA was used for each qPCR reaction. The qPCR was performed using PowerUp™ SYBR™ Green Master Mix (Thermo Fisher, A25742) with 10 µL reaction volume using Bio-Rad CFX96 Real-Time PCR Detection System following the standard cycling mode (primer Tm ≥ 60 °C) on the manufacturer’s protocol. Data was analyzed using the 2^- ΔΔCt method. The primers used are listed in Supplementary Table S3. The inhibition % was calculated by using the equation: inhibition% = 100× (normalized Tm control - normalized of the sample)/(normalized Tm control - normalized DMSO control). Tm control: Cells treated with tunicamycin; DMSO control: Cells treated with DMSO only.

[4] = test system: IRE1α transcription level in A549 cells; assay: RT-qPCR of IRE1α transcription level, A549; format: cell-based, human; details: A549 cells
Protocol: as §1

[5] = test system: IRE1α transcription level in HT-29 cells; assay: RT-qPCR of IRE1α transcription level, HT-29; format: cell-based, human; details: HT-29 cells
Protocol: as §1

[6] = molecular target: T3, IRE1α in A549 cells (Homo sapiens, UniProt O75460); assay: Cellular thermal shift assay (CETSA) in A549 cells; format: cell-based
T3 construct: endogenous in cells; host or cells: A549 cells
Protocol: A549 cells were harvested and seeded into 100 mm standard cell culture dishes at 80% confluency and cultured overnight. For the IA107 experiment, cells were gently washed with pre-cooled DPBS (Gibco,14190169) and lysed in RIPA buffer (Sigma, R0278) supplemented with phosphatase inhibitor (Roch, 4906845001) and 1× protease inhibitor cocktail (Sigma, P8340) for 30 min on ice. Cell lysates were centrifuged at 18,000 × g for 30 min at 4 °C and the supernatants were collected. The lysates were collected together and then aliquoted into 550 μL, the aliquots were incubated with different concentrations of IA107 with a final concentration of 0.1% DMSO for 30 min at room temperature. […]
For the IAPD1 experiment, A549 cells were treated with different concentrations of IAPD1 or DMSO for 4 h (final 0.1% DMSO). […] Lysates were collected by scraping and centrifuged at 18,000 × g for 30 min at 4 °C, and the protein concentrations of the supernatants were quantified using a BCA protein assay kit (Thermo Scientific, 23227) and diluted to 4 μg/μL, then cell lysate was aliquoted into 10 PCR tubes, with 50 μL of lysate per tube. […] After heating, samples were centrifuged at 18,000 × g for 30 min at 4 °C, and supernatants were collected and analyzed by western blot using the method and antibodies aforementioned.

T3 sequence (O75460 19-977): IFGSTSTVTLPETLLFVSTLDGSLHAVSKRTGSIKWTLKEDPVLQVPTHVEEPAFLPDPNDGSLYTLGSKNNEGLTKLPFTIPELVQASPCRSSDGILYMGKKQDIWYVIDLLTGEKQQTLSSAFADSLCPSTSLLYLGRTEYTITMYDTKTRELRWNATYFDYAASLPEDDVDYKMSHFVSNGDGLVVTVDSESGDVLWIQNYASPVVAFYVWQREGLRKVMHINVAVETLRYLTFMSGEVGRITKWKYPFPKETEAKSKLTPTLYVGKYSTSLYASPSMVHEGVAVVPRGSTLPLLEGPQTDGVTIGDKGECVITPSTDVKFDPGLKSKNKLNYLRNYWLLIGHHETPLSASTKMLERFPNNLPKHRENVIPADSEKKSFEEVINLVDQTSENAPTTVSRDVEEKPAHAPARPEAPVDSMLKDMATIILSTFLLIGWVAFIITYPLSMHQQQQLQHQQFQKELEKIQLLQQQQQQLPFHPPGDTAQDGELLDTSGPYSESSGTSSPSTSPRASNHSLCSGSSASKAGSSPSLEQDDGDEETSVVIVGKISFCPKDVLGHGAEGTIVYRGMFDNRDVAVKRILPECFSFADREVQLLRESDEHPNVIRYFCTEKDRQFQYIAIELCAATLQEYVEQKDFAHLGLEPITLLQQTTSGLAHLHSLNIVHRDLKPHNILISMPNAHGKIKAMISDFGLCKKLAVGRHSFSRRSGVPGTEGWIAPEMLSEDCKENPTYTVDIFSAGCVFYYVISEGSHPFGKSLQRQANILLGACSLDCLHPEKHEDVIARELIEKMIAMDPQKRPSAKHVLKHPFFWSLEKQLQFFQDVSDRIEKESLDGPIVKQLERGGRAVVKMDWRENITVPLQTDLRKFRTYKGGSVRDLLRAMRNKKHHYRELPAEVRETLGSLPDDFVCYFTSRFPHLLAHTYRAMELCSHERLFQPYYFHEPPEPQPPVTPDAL
T2 sequence (O75460 19-977): as above
T1 sequence (O75460 547-977): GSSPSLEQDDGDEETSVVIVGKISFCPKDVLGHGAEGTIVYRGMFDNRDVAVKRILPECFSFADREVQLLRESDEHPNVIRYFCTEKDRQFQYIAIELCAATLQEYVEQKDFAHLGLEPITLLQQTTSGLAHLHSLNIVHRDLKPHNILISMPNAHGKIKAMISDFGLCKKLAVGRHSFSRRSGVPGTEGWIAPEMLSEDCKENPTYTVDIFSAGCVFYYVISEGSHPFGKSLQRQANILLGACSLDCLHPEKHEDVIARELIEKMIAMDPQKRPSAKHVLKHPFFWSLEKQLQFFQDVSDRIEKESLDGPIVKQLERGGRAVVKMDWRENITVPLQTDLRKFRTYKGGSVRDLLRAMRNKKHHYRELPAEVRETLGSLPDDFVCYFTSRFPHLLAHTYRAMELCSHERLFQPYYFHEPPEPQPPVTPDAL

Row | IC50 ([3]; Homo sapiens) [nM] | treatment concentration below which stabilizing effects are negligible (CETSA) ([6]; A549 cells) | Structure (SMILES) | Kd [1] [nM] | thermal stabilization of full-length IRE1α in cell lysate [2] | inhibition of ER stress-induced XBP1 mRNA splicing [3] | effect on IRE1α transcription level [4] | effect on IRE1α transcription level [5] | thermal stabilization of cellular IRE1α, CETSA ([6]; A549 cells treated 4 h)
1 |  |  | Cc1c(CCC(=O)O)c2cc(Br)ccc2n1C(=O)c1ccccc1 [IA107] | 1360 | concentration-dependently stabilized; also recorded: stabilized full-length IRE1α in cell lysate; also recorded: stabilized the full-length IRE1α in a concentration-dependent manner |  |  |  | 
2 | 220 | lower than 2.22 μM | CCOC(=O)CCc1c(C)n(C(=O)c2ccccc2)c2ccc(Br)cc12 [IAPD1] |  |  | inhibited | minimal impacts; also recorded: not affected | did not influence; also recorded: no obvious impact | dose-dependently stabilized; also recorded: concentration-dependently stabilized; also recorded: concentration-dependently increased
